US20260000642A1 (Tay Therapeutics Limited, priority 2022, published 2026)
Several values for one entry are separate records, joined by “and”; a condition that tells them apart may be missing. Equal entries are not always repeated.

Tested on: collagen-induced arthritis in Lewis rats
Assay: Collagen-induced arthritis (CIA) model in rats: body weight, paw volume, clinical scores, clinical observations
[1] = Group 5 (CIA + Example 101 3 mg/kg), Day 1, individual animals, 3 mg/kg
[2] = Group 5 (CIA + Example 101 3 mg/kg), Day 3, individual animals, 3 mg/kg
[3] = Group 5 (CIA + Example 101 3 mg/kg), Day 7, individual animals, 3 mg/kg
[4] = Group 5 (CIA + Example 101 3 mg/kg), Day 13, individual animals, 3 mg/kg
[5] = Group 5 (CIA + Example 101 3 mg/kg), Day 16, individual animals, 3 mg/kg
[6] = Group 5 (CIA + Example 101 3 mg/kg), Day 17, individual animals, 3 mg/kg
[7] = Group 5 (CIA + Example 101 3 mg/kg), Day 20, individual animals, 3 mg/kg
[8] = Group 6 (CIA + Example 101 10 mg/kg), Day 2, individual animals, 10 mg/kg
[9] = Group 6 (CIA + Example 101 10 mg/kg), Day 5, individual animals, 10 mg/kg
[10] = Group 6 (CIA + Example 101 10 mg/kg), Day 6, individual animals, 10 mg/kg
[11] = Group 6 (CIA + Example 101 10 mg/kg), Day 7, individual animals, 10 mg/kg
[12] = Group 6 (CIA + Example 101 10 mg/kg), Day 13, individual animals, 10 mg/kg
[13] = Group 6 (CIA + Example 101 10 mg/kg), Day 15, individual animals, 10 mg/kg
[14] = Group 6 (CIA + Example 101 10 mg/kg), Day 18, individual animals, 10 mg/kg
[15] = Group 6 (CIA + Example 101 10 mg/kg), Day 19, individual animals, 10 mg/kg
[16] = Group 6 (CIA + Example 101 10 mg/kg), Day 20, individual animals, 10 mg/kg
[17] = Group 7 (CIA + Example 101 30 mg/kg), Day 1, individual animals, 30 mg/kg
[18] = Group 7 (CIA + Example 101 30 mg/kg), Day 9, individual animals, 30 mg/kg
[19] = Group 7 (CIA + Example 101 30 mg/kg), Day 11, individual animals, 30 mg/kg
[20] = Group 7 (CIA + Example 101 30 mg/kg), Day 12, individual animals, 30 mg/kg
[21] = Group 7 (CIA + Example 101 30 mg/kg), Day 13, individual animals, 30 mg/kg
[22] = Group 7 (CIA + Example 101 30 mg/kg), Day 15, individual animals, 30 mg/kg
[23] = Group 7 (CIA + Example 101 30 mg/kg), Day 17, individual animals, 30 mg/kg
[24] = Group 7 (CIA + Example 101 30 mg/kg), Day 20, individual animals, 30 mg/kg
[25] = Group 7 (CIA + Example 101 30 mg/kg), Day 21, individual animals, 30 mg/kg

## CNC(=O)c1[nH]c(C(=O)NC2CCC2)cc1O[C@@H](C)c1ccccc1 [Example 101, N^5-cyclobutyl-N^2-methyl-3-(1-phenylethoxy)-1H-pyrrole-2,5-dicarboxamide]
Day 12, CIA + 30 mg/kg
  Average animal body weight percent change: 0.66%
  Mean animal body weight: 163 g
Day 13, CIA + 3 mg/kg
  Average animal body weight percent change: 7.74%
  Mean animal body weight: 178 g
Day 13, CIA + 10 mg/kg
  Average animal body weight percent change: 3.92%
  Mean animal body weight: 169 g
Day 13, CIA + 30 mg/kg
  Average animal body weight percent change: 0.18%
  Mean animal body weight: 162 g
Day 14, CIA + 3 mg/kg
  Average animal body weight percent change: 7.08%
  Mean animal body weight: 177 g
Day 14, CIA + 10 mg/kg
  Average animal body weight percent change: 4.05%
  Mean animal body weight: 169 g
Day 14, CIA + 30 mg/kg
  Average animal body weight percent change: 1.42%
  Mean animal body weight: 164 g
Day 15, CIA + 3 mg/kg
  Average animal body weight percent change: 5.15%
  Mean animal body weight: 173 g
Day 15, CIA + 10 mg/kg
  Average animal body weight percent change: 3.31%
  Mean animal body weight: 168 g
Day 15, CIA + 30 mg/kg
  Average animal body weight percent change: 2.38%
  Mean animal body weight: 166 g
Day 16, CIA + 3 mg/kg
  Average animal body weight percent change: 3.90%
  Mean animal body weight: 171 g
Day 16, CIA + 10 mg/kg
  Average animal body weight percent change: 2.23%
  Mean animal body weight: 166 g
Day 16, CIA + 30 mg/kg
  Average animal body weight percent change: 1.69%
  Mean animal body weight: 165 g
Day 17, CIA + 3 mg/kg
  Average animal body weight percent change: 3.37%
  Mean animal body weight: 170 g
Day 17, CIA + 10 mg/kg
  Average animal body weight percent change: 2.29%
  Mean animal body weight: 166 g
Day 17, CIA + 30 mg/kg
  Average animal body weight percent change: 1.41%
  Mean animal body weight: 164 g
Day 18, CIA + 3 mg/kg
  Average animal body weight percent change: 2.36%
  Mean animal body weight: 169 g
Day 18, CIA + 10 mg/kg
  Average animal body weight percent change: 1.38%
  Mean animal body weight: 165 g
Day 18, CIA + 30 mg/kg
  Average animal body weight percent change: 1.61%
  Mean animal body weight: 165 g
Day 19, CIA + 3 mg/kg
  Average animal body weight percent change: 0.91%
  Mean animal body weight: 166 g
Day 19, CIA + 10 mg/kg
  Average animal body weight percent change: 0.76%
  Mean animal body weight: 164 g
Day 19, CIA + 30 mg/kg
  Average animal body weight percent change: 1.24%
  Mean animal body weight: 164 g
Day 20, CIA + 3 mg/kg
  Average animal body weight percent change: 1.13%
  Mean animal body weight: 167 g
Day 20, CIA + 10 mg/kg
  Average animal body weight percent change: 1.30%
  Mean animal body weight: 164 g
Day 20, CIA + 30 mg/kg
  Average animal body weight percent change: 0.50%
  Mean animal body weight: 163 g
Day 21, CIA + 3 mg/kg
  Average animal body weight percent change: 1.73%
  Mean animal body weight: 168 g
Day 21, CIA + 10 mg/kg
  Average animal body weight percent change: 0.53%
  Mean animal body weight: 163 g
Day 21, CIA + 30 mg/kg
  Average animal body weight percent change: 0.50%
  Mean animal body weight: 163 g
Group 5 (CIA + Example 101 3 mg/kg), Day 0, individual animals
  Animal body weight percent change: 0.00%
[1]
  Animal body weight: 170 g
  Animal body weight percent change: −0.58% and 0.65%
Group 5 (CIA + Example 101 3 mg/kg), Day 2, individual animals, 3 mg/kg
  Animal body weight percent change: 0.62% and 0.56% and −1.20%
[2]
  Animal body weight: 160 g and 170 g
  Animal body weight percent change: −0.62% and −1.13% and −0.60%
Group 5 (CIA + Example 101 3 mg/kg), Day 4, individual animals, 3 mg/kg
  Animal body weight: 170 g
Group 5 (CIA + Example 101 3 mg/kg), Day 5, individual animals, 3 mg/kg
  Animal body weight percent change: 0.00%
Group 5 (CIA + Example 101 3 mg/kg), Day 6, individual animals, 3 mg/kg
  Animal body weight: 180 g and 160 g
[3]
  Animal body weight: 160 g and 180 g
  Animal body weight percent change: 0.63%
Group 5 (CIA + Example 101 3 mg/kg), Day 8, individual animals, 3 mg/kg
  Animal body weight: 160 g
Group 5 (CIA + Example 101 3 mg/kg), Day 9, individual animals, 3 mg/kg
  Animal body weight: 170 g
Group 5 (CIA + Example 101 3 mg/kg), Day 10, individual animals, 3 mg/kg
  Animal body weight percent change: 9.70%
Group 5 (CIA + Example 101 3 mg/kg), Day 11, individual animals, 3 mg/kg
  Animal body weight: 180 g
[4]
  Animal body weight: 180 g
  Animal body weight percent change: 9.70%
Group 5 (CIA + Example 101 3 mg/kg), Day 14, individual animals, 3 mg/kg
  Animal body weight: 180 g
[5]
  Animal body weight: 150 g and 170 g
  Animal body weight percent change: 0.58%
[6]
  Animal body weight: 170 g
  Animal body weight percent change: −4.40%
Group 5 (CIA + Example 101 3 mg/kg), Day 18, individual animals, 3 mg/kg
  Animal body weight percent change: −4.40% and 0.00%
Group 5 (CIA + Example 101 3 mg/kg), Day 19, individual animals, 3 mg/kg
  Animal body weight: 150 g and 170 g
[7]
  Animal body weight: 160 g and 170 g
  Animal body weight percent change: −4.40% and 0.60%
Group 5 (CIA + Example 101 3 mg/kg), Day 21, individual animals, 3 mg/kg
  Animal body weight percent change: 0.60%
Group 6 (CIA + Example 101 10 mg/kg), Day 0, individual animals
  Animal body weight percent change: 0.00%
Group 6 (CIA + Example 101 10 mg/kg), Day 0, individual animals, 10 mg/kg
  Animal body weight: 170 g and 160 g
Group 6 (CIA + Example 101 10 mg/kg), Day 1, individual animals, 10 mg/kg
  Animal body weight percent change: 0.00% and 0.64% and 5.00%
[8]
  Animal body weight: 160 g
  Animal body weight percent change: 0.62%
Group 6 (CIA + Example 101 10 mg/kg), Day 3, individual animals, 10 mg/kg
  Animal body weight percent change: 0.59%
Group 6 (CIA + Example 101 10 mg/kg), Day 4, individual animals, 10 mg/kg
  Animal body weight percent change: 0.58% and 0.59% and 3.70% and −0.61% and 7.50%
[9]
  Animal body weight: 170 g and 160 g
  Animal body weight percent change: −0.62%
[10]
  Animal body weight: 170 g
  Animal body weight percent change: −1.76% and 10.00%
[11]
  Animal body weight: 180 g
  Animal body weight percent change: −0.61%
Group 6 (CIA + Example 101 10 mg/kg), Day 8, individual animals, 10 mg/kg
  Animal body weight: 180 g
Group 6 (CIA + Example 101 10 mg/kg), Day 9, individual animals, 10 mg/kg
  Animal body weight percent change: 3.70%
Group 6 (CIA + Example 101 10 mg/kg), Day 10, individual animals, 10 mg/kg
  Animal body weight percent change: 0.00%
Group 6 (CIA + Example 101 10 mg/kg), Day 11, individual animals, 10 mg/kg
  Animal body weight percent change: −0.59% and 0.62%
[12]
  Animal body weight: 150 g and 160 g
  Animal body weight percent change: 0.62% and −0.62%
[13]
  Animal body weight: 170 g
  Animal body weight percent change: −0.62%
Group 6 (CIA + Example 101 10 mg/kg), Day 16, individual animals, 10 mg/kg
  Animal body weight percent change: 0.00% and −0.62%
Group 6 (CIA + Example 101 10 mg/kg), Day 17, individual animals, 10 mg/kg
  Animal body weight percent change: 0.62% and 20.00%
[14]
  Animal body weight: 160 g
  Animal body weight percent change: 0.00%
[15]
  Animal body weight: 170 g and 160 g (2×)
  Animal body weight percent change: −0.58%
[16]
  Animal body weight: 170 g
  Animal body weight percent change: −0.62% and −0.61%
Group 6 (CIA + Example 101 10 mg/kg), Day 21, individual animals, 10 mg/kg
  Animal body weight percent change: −0.62%
Group 7 (CIA + Example 101 30 mg/kg), Day 0, individual animals
  Animal body weight percent change: 0.00%
[17]
  Animal body weight: 160 g and 170 g
  Animal body weight percent change: −0.61% and 1.20%
Group 7 (CIA + Example 101 30 mg/kg), Day 2, individual animals, 30 mg/kg
  Animal body weight: 170 g
Group 7 (CIA + Example 101 30 mg/kg), Day 3, individual animals, 30 mg/kg
  Animal body weight: 160 g
Group 7 (CIA + Example 101 30 mg/kg), Day 4, individual animals, 30 mg/kg
  Animal body weight: 160 g
Group 7 (CIA + Example 101 30 mg/kg), Day 5, individual animals, 30 mg/kg
  Animal body weight percent change: 0.00% and 0.61%
Group 7 (CIA + Example 101 30 mg/kg), Day 7, individual animals, 30 mg/kg
  Animal body weight percent change: 0.61%
Group 7 (CIA + Example 101 30 mg/kg), Day 8, individual animals, 30 mg/kg
  Animal body weight percent change: 7.10% and −0.61% (2×) and −0.60%
[18]
  Animal body weight: 170 g
  Animal body weight percent change: −0.58%
Group 7 (CIA + Example 101 30 mg/kg), Day 10, individual animals, 30 mg/kg
  Animal body weight percent change: −0.58% and 0.00% (2×)
[19]
  Animal body weight: 170 g
  Animal body weight percent change: 0.61%
[20]
  Animal body weight: 170 g and 160 g
  Animal body weight percent change: 1.20%
[21]
  Animal body weight: 170 g and 160 g
  Animal body weight percent change: −0.61% and 1.30%
Group 7 (CIA + Example 101 30 mg/kg), Day 14, individual animals, 30 mg/kg
  Animal body weight percent change: 2.60%
[22]
  Animal body weight: 170 g and 160 g
  Animal body weight percent change: 0.00% (2×) and 3.90%
Group 7 (CIA + Example 101 30 mg/kg), Day 16, individual animals, 30 mg/kg
  Animal body weight percent change: 0.65%
[23]
  Animal body weight: 170 g
  Animal body weight percent change: 1.30%
Group 7 (CIA + Example 101 30 mg/kg), Day 18, individual animals, 30 mg/kg
  Animal body weight percent change: −0.58% and −1.30%
Group 7 (CIA + Example 101 30 mg/kg), Day 19, individual animals, 30 mg/kg
  Animal body weight percent change: −1.20%
[24]
  Animal body weight: 160 g
  Animal body weight percent change: 6.10%
[25]
  Animal body weight: 150 g
  Animal body weight percent change: 6.10% and −2.60%
